Strand notation (5' to 3'): a small letter for the sugar, then the base; units joined by * are phosphorothioate-linked, units joined directly phosphodiester-linked; [ ] holds rarer units or linkages, { } end groups; capitals alone tell only the bases. k = constrained ethyl (cEt); [5mC] = 5-methylcytosine; d = 2'-deoxy (DNA)
Test system: human SMAD7 mRNA
Test: Antisense inhibition of human SMAD7 mRNA expression in Hep3B cells by 3-10-3 cEt gapmers, 10,000 nM, electroporation (Example 2)
Format: cell-based
Conditions: SMAD7 mRNA, Hep3B cells, electroporation with 10,000 nM antisense oligonucleotide, approximately 24 hours, primer probe set RTS5062, relative to untreated control cells
Method in brief: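 Hep3B cells (20,000/well) were electroporated with 10,000 nM 3-10-3 cEt gapmer (16-mer, phosphorothioate, 5-methylcytosines) and harvested after about 24 h. SMAD7 mRNA quantified by RT-qPCR with primer probe set RTS5062, normalized to total RNA by RiboGreen; percent inhibition relative to untreated cells.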

Substance	% Inhibition [%]
829863 (antisense kA*k[5mC]*kT*dG*d[5mC]*dT*dG*d[5mC]*dG*dG*dT*dT*dG*kT*kA*k[5mC]) [compound 829863]	31
829865 (antisense kG*kG*k[5mC]*dG*dG*dA*d[5mC]*dT*dT*dG*dA*dT*dG*kA*kA*kG) [compound 829865]	30
829866 (antisense kG*kT*kG*dG*d[5mC]*dG*dG*dA*d[5mC]*dT*dT*dG*dA*kT*kG*kA) [compound 829866]	10
829867 (antisense kT*kG*kT*dG*dG*d[5mC]*dG*dG*dA*d[5mC]*dT*dT*dG*kA*kT*kG) [compound 829867]	22
829868 (antisense kA*kG*kT*dG*dT*dG*dG*d[5mC]*dG*dG*dA*d[5mC]*dT*kT*kG*kA) [compound 829868]	52
829869 (antisense k[5mC]*kA*kG*dT*dG*dT*dG*dG*d[5mC]*dG*dG*dA*d[5mC]*kT*kT*kG) [compound 829869]	37
829870 (antisense k[5mC]*k[5mC]*kA*dG*dT*dG*dT*dG*dG*d[5mC]*dG*dG*dA*k[5mC]*kT*kT) [compound 829870]	19
829871 (antisense kG*kT*k[5mC]*d[5mC]*dA*dG*dT*dG*dT*dG*dG*d[5mC]*dG*kG*kA*k[5mC]) [compound 829871]	1
829872 (antisense kT*kG*kT*d[5mC]*d[5mC]*dA*dG*dT*dG*dT*dG*dG*d[5mC]*kG*kG*kA) [compound 829872]	50
829873 (antisense kT*kT*kG*dT*d[5mC]*d[5mC]*dA*dG*dT*dG*dT*dG*dG*k[5mC]*kG*kG) [compound 829873]	52
829874 (antisense kG*kT*kT*dG*dT*d[5mC]*d[5mC]*dA*dG*dT*dG*dT*dG*kG*k[5mC]*kG) [compound 829874]	43
829875 (antisense k[5mC]*kG*kG*dG*dT*dT*dG*dT*d[5mC]*d[5mC]*dA*dG*dT*kG*kT*kG) [compound 829875]	52
829876 (antisense k[5mC]*k[5mC]*kG*dG*dG*dT*dT*dG*dT*d[5mC]*d[5mC]*dA*dG*kT*kG*kT) [compound 829876]	30
829877 (antisense kT*k[5mC]*k[5mC]*dG*dG*dG*dT*dT*dG*dT*d[5mC]*d[5mC]*dA*kG*kT*kG) [compound 829877]	42
829878 (antisense kG*kA*kG*dT*d[5mC]*d[5mC]*dG*dG*dG*dT*dT*dG*dT*k[5mC]*k[5mC]*kA) [compound 829878]	18
829879 (antisense kT*kG*kG*dA*dG*dT*d[5mC]*d[5mC]*dG*dG*dG*dT*dT*kG*kT*k[5mC]) [compound 829879]	29
829880 (antisense kT*k[5mC]*k[5mC]*dT*dG*dG*dA*dG*dT*d[5mC]*d[5mC]*dG*dG*kG*kT*kT) [compound 829880]	32
829881 (antisense k[5mC]*kG*kT*d[5mC]*d[5mC]*dT*dG*dG*dA*dG*dT*d[5mC]*d[5mC]*kG*kG*kG) [compound 829881]	39
829882 (antisense kA*kG*kG*d[5mC]*dT*dG*dT*dA*d[5mC]*dG*d[5mC]*d[5mC]*dT*kT*k[5mC]*kT) [compound 829882]	3

Substance	% Inhibition [%]
829883 (antisense k[5mC]*kA*kG*dG*d[5mC]*dT*dG*dT*dA*d[5mC]*dG*d[5mC]*d[5mC]*kT*kT*k[5mC]) [compound 829883]	0
829884 (antisense kT*kG*k[5mC]*dA*dG*dG*d[5mC]*dT*dG*dT*dA*d[5mC]*dG*k[5mC]*k[5mC]*kT) [compound 829884]	24
829885 (antisense k[5mC]*k[5mC]*kG*d[5mC]*dT*dG*d[5mC]*dA*dG*dG*d[5mC]*dT*dG*kT*kA*k[5mC]) [compound 829885]	31
829886 (antisense kG*kT*kG*dG*dT*d[5mC]*dA*dT*dT*dG*dG*dG*d[5mC]*k[5mC]*kG*k[5mC]) [compound 829886]	6
829887 (antisense k[5mC]*kG*kT*dG*dG*dT*d[5mC]*dA*dT*dT*dG*dG*dG*k[5mC]*k[5mC]*kG) [compound 829887]	47
829888 (antisense kG*kT*k[5mC]*d[5mC]*dA*d[5mC]*dG*dG*d[5mC]*dT*dG*d[5mC]*dT*kG*k[5mC]*kA) [compound 829888]	47
829889 (antisense k[5mC]*kG*kT*d[5mC]*d[5mC]*dA*d[5mC]*dG*dG*d[5mC]*dT*dG*d[5mC]*kT*kG*k[5mC]) [compound 829889]	48
829890 (antisense kA*kA*kG*d[5mC]*d[5mC]*d[5mC]*dG*dT*d[5mC]*d[5mC]*dA*d[5mC]*dG*kG*k[5mC]*kT) [compound 829890]	0
829891 (antisense kA*kT*k[5mC]*dT*dG*d[5mC]*dA*d[5mC]*dG*dG*dT*dA*dA*kA*kG*k[5mC]) [compound 829891]	25
829892 (antisense kG*kA*kT*d[5mC]*dT*dG*d[5mC]*dA*d[5mC]*dG*dG*dT*dA*kA*kA*kG) [compound 829892]	32
829893 (antisense kT*kG*kA*dT*d[5mC]*dT*dG*d[5mC]*dA*d[5mC]*dG*dG*dT*kA*kA*kA) [compound 829893]	14
829894 (antisense kG*k[5mC]*kT*dG*dA*dT*d[5mC]*dT*dG*d[5mC]*dA*d[5mC]*dG*kG*kT*kA) [compound 829894]	41
829895 (antisense kT*k[5mC]*kA*d[5mC]*dA*dA*dA*dG*d[5mC]*dT*dG*dA*dT*k[5mC]*kT*kG) [compound 829895]	37
829896 (antisense k[5mC]*kG*kG*dG*dT*dG*dT*dA*dG*d[5mC]*dA*d[5mC]*dT*kG*kG*k[5mC]) [compound 829896]	44
829897 (antisense kG*k[5mC]*kG*dG*dG*dT*dG*dT*dA*dG*d[5mC]*dA*d[5mC]*kT*kG*kG) [compound 829897]	40
829898 (antisense kT*kG*kG*d[5mC]*dG*dG*dG*dT*dG*dT*dA*dG*d[5mC]*kA*k[5mC]*kT) [compound 829898]	31
829899 (antisense kA*k[5mC]*kG*dG*dG*d[5mC]*dA*dG*d[5mC]*dT*dG*d[5mC]*dT*kG*kA*kT) [compound 829899]	20
829900 (antisense k[5mC]*kA*k[5mC]*dG*dG*dG*d[5mC]*dA*dG*d[5mC]*dT*dG*d[5mC]*kT*kG*kA) [compound 829900]	0
829901 (antisense kA*kG*k[5mC]*dA*d[5mC]*dG*dG*dG*d[5mC]*dA*dG*d[5mC]*dT*kG*k[5mC]*kT) [compound 829901]	10

Substance	% Inhibition [%]
829902 (antisense k[5mC]*kA*kG*d[5mC]*dA*d[5mC]*dG*dG*dG*d[5mC]*dA*dG*d[5mC]*kT*kG*k[5mC]) [compound 829902]	0
829903 (antisense k[5mC]*kT*kG*dT*dT*dG*dA*dA*dG*dA*dT*dG*dA*k[5mC]*k[5mC]*kT) [compound 829903]	25
829904 (antisense kG*k[5mC]*kT*dG*dT*dT*dG*dA*dA*dG*dA*dT*dG*kA*k[5mC]*k[5mC]) [compound 829904]	21
829905 (antisense k[5mC]*kG*kG*d[5mC]*dT*dG*dT*dT*dG*dA*dA*dG*dA*kT*kG*kA) [compound 829905]	20
829906 (antisense k[5mC]*k[5mC]*kG*dG*d[5mC]*dT*dG*dT*dT*dG*dA*dA*dG*kA*kT*kG) [compound 829906]	0
829907 (antisense kA*k[5mC]*k[5mC]*dG*dG*d[5mC]*dT*dG*dT*dT*dG*dA*dA*kG*kA*kT) [compound 829907]	23
829908 (antisense k[5mC]*kT*kA*d[5mC]*d[5mC]*dG*dG*d[5mC]*dT*dG*dT*dT*dG*kA*kA*kG) [compound 829908]	1
829909 (antisense k[5mC]*kG*kG*d[5mC]*dT*dA*d[5mC]*d[5mC]*dG*dG*d[5mC]*dT*dG*kT*kT*kG) [compound 829909]	34
829910 (antisense kG*kA*kG*dT*dT*dT*dG*d[5mC]*dA*dT*dG*dA*dA*kA*kA*kG) [compound 829910]	49
829911 (antisense k[5mC]*kG*kA*d[5mC]*d[5mC]*dA*dA*dA*dG*dA*dG*dT*dT*kT*kG*k[5mC]) [compound 829911]	52
829912 (antisense kA*kA*k[5mC]*dG*dA*d[5mC]*d[5mC]*dA*dA*dA*dG*dA*dG*kT*kT*kT) [compound 829912]	24
829913 (antisense k[5mC]*k[5mC]*kT*dT*dG*dG*dG*dT*dT*dA*dT*dG*dA*k[5mC]*kG*kG) [compound 829913]	40
829914 (antisense kA*k[5mC]*k[5mC]*dT*dT*dG*dG*dG*dT*dT*dA*dT*dG*kA*k[5mC]*kG) [compound 829914]	35
829915 (antisense kG*kG*kT*dA*d[5mC]*d[5mC]*dT*dT*dG*dG*dG*dT*dT*kA*kT*kG) [compound 829915]	22
829916 (antisense kG*kA*kA*dG*dA*dG*dT*dT*dA*dG*dG*dT*dG*kT*k[5mC]*kA) [compound 829916]	33
829917 (antisense kA*kG*kT*dG*dT*dA*dT*dG*dA*dG*dT*dT*dG*kT*kA*kG) [compound 829917]	45
829918 (antisense kG*kA*kG*dT*dG*dT*dA*dT*dG*dA*dG*dT*dT*kG*kT*kA) [compound 829918]	53
829919 (antisense k[5mC]*kG*kA*dG*dT*dG*dT*dA*dT*dG*dA*dG*dT*kT*kG*kT) [compound 829919]	47

Source: patent publication US10517889B2, “Modulators of SMAD7 expression” (Ionis Pharmaceuticals, Inc., priority 2017, dated 2019)
